From paper PMC6273431, “The Structure–Antimicrobial Activity Relationships of a Promising Class of the Compounds Containing the N-Arylpiperazine Scaffold” (Molecules, 2016)
Where two headings read alike, the source gives them in different places.

Legend:
[1] = system: methicillin-resistant Staphylococcus aureus 63718; assay: antibacterial MIC, microtitration broth method; type: cell-based; details: MRSA, 37 °C
Description: (§1) Prior to the testing, each strain was transferred into a nutrient agar (Oxoid Limited, Basingstoke, UK), which was enriched with 5% defibrinated bovine blood.
(§2) The MICs were determined by the microtitration broth method in the cation-adjusted Mueller-Hinton broth (Becton Dickinson, Oxford, UK) according to an international interdisciplinary Clinical Laboratory Standard Institute guidelines.
(§3) The checkerboard was inoculated by the bacterial inocula, which were prepared in a phosphate buffered saline solution with the pH = 7.2–7.3 to simulate physiological pH. The final concentration of each inoculum in the final volume of 100 μL in the wells was approximately 7.5 × 10^6 CFU/mL. Drug-free controls, sterility controls and the controls consisted of the broth with DMSO were included. The determination of the results was performed visually after 24 h of static incubation in the darkness at 37 °C in an aerobic atmosphere.
(§4) To ensure reproducibility, each antibacterial MIC assay was performed triplicate on separate occasions.

[2] = system: Enterococcus faecalis ATCC 29212; assay: antibacterial MIC, microtitration broth method; type: cell-based; details: 37 °C
Description: as §1, §2, §3, §4

[3] = system: Staphylococcus aureus ATCC 29213; assay: antibacterial MIC, microtitration broth method; type: cell-based; details: 37 °C
Description: as §1, §2, §3, §4

[4] = system: Escherichia coli ATCC 25922; assay: antibacterial MIC, microtitration broth method; type: cell-based; details: 37 °C
Description: as §1, §2, §3, §4

[5] = system: Candida albicans CCM 8261; assay: candidacidal MIC, microdilution method; type: cell-based; details: Candida albicans, CCM8261, 48 h, 37 °C
Description: (§5) In order to provide a look into the potential usefulness of the derivatives 5a–l as the candidates for a development of anti-yeast (candidacidal) agents, they were in vitro tested against Candida albicans CCM 8261 (CA 8261), C. krusei CCM 8271 (CK 8271) and C. parapsilosis CCM 8260 (CP 8260). The yeasts were obtained from the Czech Collection of Microorganisms (Masaryk University, Faculty of Science, Brno, Czech Republic). They were grown and kept on Sabouraud agar (Oxoid Limited, Basingstoke, UK).
(§6) For the screening, the microdilution method according to the Antimicrobial Susceptibility Testing Protocols was applied. The inoculum was prepared from the cultures grown on Sabouraud agar. With the sterile solution of NaCl, the inoculum was prepared to the 0.5 McFarland units using the Densi-La-Meter densitometer (LIAP, Riga, Latvia) and diluted a thousand‑fold with the Roswell Park Memorial Institute (RPMI) 1640 medium (Sigma-Aldrich, Darmstadt, Germany). Prepared suspension was used for an inoculation of microtitre plates. Final concentration in wells ranged from 5.0 × 10^2 CFU/mL to 2.5 × 10^3 CFU/mL. […] For the determination of the MICs, the stock solutions of all the tested compounds were diluted in the microtitre checkerboard to the final concentration varying from 128 μg/mL to 0.125 μg/mL. Drug-free control, sterility control and the control consisted of a medium and DMSO alone were included. Inoculated microtitre plates were incubated for 48 h in the darkness at 37 °C in an aerobic atmosphere. The results were estimated against static light.
(§7) The MIC was defined as the lowest concentration of the tested compound at which no visible growth was observed. To ensure reproducibility of the results, each candidacidal MIC assay was performed triplicate on separate occasions. It was important to note that all the MICs from the in vitro antimicrobial screening were expressed in μg/mL units and were available in Tables S3 and S4 (Supplementary Materials).

Candida krusei CCM 8271 = assay: candidacidal MIC, microdilution method; type: cell-based; details: Pichia kudriavzevii, CCM8271, 48 h, 37 °C
Description: as §5, §6, §7

[6] = system: Candida parapsilosis CCM 8260; assay: candidacidal MIC, microdilution method; type: cell-based; details: Lodderomyces parapsilosis, CCM8260, 48 h, 37 °C
Description: as §5, §6, §7

[7] = system: Mycobacterium avium subsp. paratuberculosis CIT03; assay: antimycobacterial MIC, MB broth, alamarBlue; type: cell-based; details: 264 h, read-out: MIC MAP
Description: The Mycobacterium avium subsp. paratuberculosis CIT03 strain was grown in the Middlebrook (MB) broth, supplemented with the Oleic-Albumin-Dextrose-Catalase Supplement (OADC, Becton Dickinson, Oxford, UK) and the mycobactin J (2 μg/mL). The commercially available siderophore mycobactin J reduced the incubation period of M. avium subsp. paratuberculosis in a complex medium when compared to the medium containing the mycobactin P as a growth factor.
The identification of the isolate was performed using biochemical and molecular protocols. At a log phase growth, a culture sample (10 mL) was centrifuged at 15,000 rpm/20 min using a bench top centrifuge (Model CR 4-12, Jouan Inc., London, UK). Following removal of the supernatant, the pellet was washed in fresh Middlebrook 7H9GC broth and re-suspended in fresh supplemented MB broth (10 mL). The turbidity was adjusted to match the McFarland standard No. 1 containing approximately 3.0 × 10^8 Colony Forming Units (CFU) with the MB broth. Further 1:20 dilution of the culture was performed in the MB broth. The susceptibility of given mycobacterial species was investigated in a 96-well plate format. In those experiments, sterile deionised water (300 μL) was added to all outer-perimeter wells of the plates to minimize an evaporation of the medium in the test wells during the incubation process. Each evaluated compound (100 μL) was incubated with the mycobacterial species (100 μL). The dilutions of a particular compound were prepared in triplicate. For all inspected derivatives, final concentrations ranged from 1000 μg/mL to 60 μg/mL. All compounds were prepared in dimethyl sulfoxide (DMSO; Sigma-Aldrich, Irvine, UK) and subsequent dilutions were made in the supplemented MB broth. The plates were sealed with a parafilm and incubated at 37 °C for 11 days. Following the incubation, a 10% addition of a water‑soluble dye, the alamarBlue reagent (AbD Serotec, Kidlington, UK), was mixed into each well. Absorbance readings at 570 nm and 600 nm were taken, initially for background subtraction and after 24 h re-incubation. The subtraction is necessary for strongly coloured compounds, where the colour may interfere with the interpretation of any colour change. For non-interfering compounds, a blue colour in a well was interpreted as an absence of a growth and a pink colour was scored as a growth.
The minimum inhibitory concentration (MIC) was defined as the lowest concentration of the compound at which no visible bacterial growth was observed. In other words, the MIC was the lowest concentration that prevented a visual colour change from blue to pink. The MIC value has been routinely and widely used in bacterial assays and it has been a standard detection limit according to the Clinical and Laboratory Standards Institute. The clinically used antimycobacterial drugs INH and RIF were applied as the standards.

M. marinum CAMP 5644 = assay: antimycobacterial MIC, broth dilution micromethod; type: cell-based; details: Mycobacterium marinum, CAMP5644, 504 h, 21 days at 28 °C
M. kansasii DSM 44162 = assay: antimycobacterial MIC, broth dilution micromethod; type: cell-based; details: Mycobacterium kansasii, DSM44162, 168 h, 7 days at 37 °C
[8] = parameters: method as in PMID 16209439, PMID 16209439; details: potentiometric titration; cited from earlier work
M. smegmatis ATCC 700084 = assay: antimycobacterial MIC, broth dilution micromethod; type: cell-based; details: Mycolicibacterium smegmatis, ATCC700084, 72 h, 3 days at 37 °C
[9] = parameters: method as in PMID 16209439, PMID 16209439, doi:10.2478/s11696-006-0007-y; details: octan-1-ol/phosphate buffer (pH = 7.4); cited from earlier work

| Compound | MIC ([1]; 24 h) [µM] | MIC ([1]; Table S4, 24 h) [mg/L] | MIC ([2]; ATCC29212, 24 h) [µM] | MIC ([2]; ATCC29212, Table S4, 24 h) [mg/L] | MIC ([3]; ATCC29213, 24 h) [µM] | MIC ([3]; ATCC29213, Table S4, 24 h) [mg/L] | MIC ([4]; ATCC25922, 24 h) [µM] | MIC ([4]; ATCC25922, Table S4, 24 h) [mg/L] | MIC [5] [µM] | MIC ([5]; Table S4) [mg/L] | MIC (Candida krusei CCM 8271) [µM] | MIC (Candida krusei CCM 8271; Table S4) [mg/L] | MIC [6] [µM] | MIC ([6]; Table S4) [mg/L] | MIC ([7]; 37 °C, 11 days) [µM] | MIC [7] [mg/L] | MIC (M. marinum CAMP 5644) [µM] | MIC (M. marinum CAMP 5644; Table S3) [mg/L] | MIC (M. kansasii DSM 44162) [µM] | MIC (M. kansasii DSM 44162; Table S3) [mg/L] | further results |
| --- | --- | --- | --- | --- | --- | --- | --- | --- | --- | --- | --- | --- | --- | --- | --- | --- | --- | --- | --- | --- | --- |
| COc1ccc(NC(=O)OCC(O)CN2CCN(c3ccc(F)cc3)CC2)cc1 (stereo not drawn) [Compound 5k] | > 582 | > 256 | > 582 | > 256 | > 582 | > 256 | > 582 | > 256 | > 291 | > 128 | > 291 | > 128 | > 291 | > 128 | 2270 | 1000 | 582 | 256 | 291 | 128 | pKa [8]: 7.24; MIC (M. smegmatis ATCC 700084): 582 µM; MIC (M. smegmatis ATCC 700084; Table S3): 256 mg/L; log Pexp [9]: 3.42 |
| COc1cccc(NC(=O)OCC(O)CN2CCN(c3cccc(C(F)(F)F)c3)CC2)c1 (stereo not drawn) [Compound 5c] | > 523 | > 256 | > 523 | > 256 | > 523 | > 256 | > 523 | > 256 | > 261 | > 128 | > 261 | > 128 | > 261 | > 128 | 1020 | 500 | 131 | 64 | 131 | 64 | pKa [8]: 5.73; MIC (M. smegmatis ATCC 700084): 523 µM; MIC (M. smegmatis ATCC 700084; Table S3): 256 mg/L; log Pexp [9]: 3.61 |
| COc1ccccc1NC(=O)OCC(O)CN1CCN(c2cccc(C(F)(F)F)c2)CC1 (stereo not drawn) [Compound 5a] | > 523 | > 256 | > 523 | > 256 | > 523 | > 256 | > 523 | > 256 | > 261 | > 128 | > 261 | > 128 | > 261 | > 128 | 510 | 250 | 131 | 64 | 131 | 64 | pKa [8]: 5.83; MIC (M. smegmatis ATCC 700084): 523 µM; MIC (M. smegmatis ATCC 700084; Table S3): 256 mg/L; log Pexp [9]: 3.57 |
| COc1cccc(NC(=O)OCC(O)CN2CCN(c3ccc(F)cc3)CC2)c1 (stereo not drawn) [Compound 5i] | > 582 | > 256 | > 582 | > 256 | > 582 | > 256 | > 582 | > 256 | > 291 | > 128 | > 291 | > 128 | > 291 | > 128 | 1140 | 500 | 291 | 128 | 145 | 64 | pKa [8]: 6.55; MIC (M. smegmatis ATCC 700084): 582 µM; MIC (M. smegmatis ATCC 700084; Table S3): 256 mg/L; log Pexp [9]: 3.25 |
